Data reported in paper PMC10317887, “Hypoglycaemia frequency and physiological response after double or triple doses of once-weekly insulin icodec vs once-daily insulin glargine U100 in type 2 diabetes: a randomised crossover trial” (Diabetologia, 2023).
Like-named read-outs stand apart in the source and are kept apart here.

Key:
albumin = conditions: ref [9], [10]; cited from earlier work
Excerpt: (§1) In addition, the low insulin receptor binding affinity of icodec contributes to its long half-life by reducing the clearance rate, as insulin is mainly cleared by internalisation following binding to and activation of the insulin receptor [9, 10]. In case of excess amounts of icodec throughout the body, e.g ...

insulin receptor = conditions: ref [9], [10]; cited from earlier work
Excerpt: as §1

[1] = tested on: individuals with type 2 diabetes; assay: Safety: adverse events and non-induced hypoglycaemic episodes during treatment periods
Excerpt: Safety assessments during the trial included adverse events (AEs), hypoglycaemic episodes (other than those induced), vital signs (other than those assessed during hypoglycaemia induction), electrocardiograms, physical examinations and clinical laboratory assessments (haematology, biochemistry and urinalysis).
AEs and hypoglycaemic episodes (other than those induced) during the treatment periods were summarised. The end of each treatment period was defined as 7 days after the last icodec dose and 2 days after the last glargine U100 dose. […] Hypoglycaemic episodes were classified as level 1 (PG <3.9 mmol/l and ≥3.0 mmol/l), level 2 (PG <3.0 mmol/l) and level 3 (severe cognitive impairment requiring assistance for recovery) [20].

[2] = tested on: individuals with type 2 diabetes; assay type: in vivo, human; conditions: for Mean PGnadir, treatment ratio (95% CI) icodec vs glargine U100 / Mean PGnadir, estimated geometric mean: all participants; for Time to recovery from PGnadir to PG5.5 mmol/l, estimated geometric mean: constant i.v. glucose 5.5 mg kg^−1 min^−1; for Time to recovery from PGnadir to PG5.5 mmol/l, estimated geometric mean / Glucose needed from PGnadir to PG5.5 mmol/l, estimated geometric mean: individuals with PG <3.3 mmol/l at initiation of recovery; for Time to decline from PG5.5 mmol/l to PG3.9 mmol/l, estimated geometric mean: individuals with PG decline to <3.0 mmol/l and/or hypoglycaemia symptoms; for Time to decline from PG5.5 mmol/l to PG3.0 mmol/l, estimated geometric mean: individuals with PG decline to <3.0 mmol/l; for Mean PGnadir in the subgroup analysis: subgroup PGnadir <3.0 mmol/l and/or symptoms
Experimental: During the two treatment periods, participants received once-weekly icodec for 6 weeks or once-daily glargine U100 for 11 days in randomised order. […] Treatment periods were separated by 35–49 days of washout following icodec and 4–11 days of washout following glargine U100. Icodec (4200 nmol/ml; Novo Nordisk, Bagsværd, Denmark) was administered s.c. in the left thigh at 20:00 hours by qualified site staff using a NovoPen 4 pen injector (Novo Nordisk). […] At the start of week 1, a one-time additional 100% icodec dose was administered to accelerate time to steady state, followed by a normal dose at week 2, a double dose at week 3 (prior to hypoglycaemia induction), no dose at week 4 (due to the double dose given the week before), a normal dose at week 5, and a triple dose at week 6 (prior to hypoglycaemia induction). Insulin glargine U100 (100 U/ml [600 nmol/ml]; Sanofi, Paris, France) was administered s.c. in the right thigh at 09:00 hours by qualified site staff using a SoloStar pen injector (Sanofi). A normal dose of once-daily glargine U100 was established during run in. Glargine U100 was administered at a normal dose for 3 days followed by a double dose on day 4 (prior to hypoglycaemia induction), no dose on day 5 (due to the double dose given the day before), then a normal dose for 5 days, and a triple dose on day 11 (prior to hypoglycaemia induction).
Hypoglycaemia induction was carried out during weeks 3 (double dose) and 6 (triple dose) for icodec and on days 4 (double dose) and 11 (triple dose) for glargine U100 while at steady state. To initiate hypoglycaemia induction, participants should not have experienced hypoglycaemia (PG <3.9 mmol/l) within 24 h or have any relevant medical condition that could confound the outcomes or pose unacceptable risk to the participant. Hypoglycaemia induction (Fig. 1b) was initiated at 16:00 hours 2 days after double/triple icodec dosing (44 h post dose) and on the day of double/triple glargine U100 dosing (7 h post dose). These timings were selected since they approximated the expected time of maximum glucose-lowering effect for both insulin products based on pharmacokinetic/pharmacodynamic modelling performed prior to the trial. For 7.5 h prior to hypoglycaemia induction, PG was kept at 5.5 mmol/l by variable i.v. infusion of glucose (20% wt/vol) or human soluble insulin (100 U/ml in 99.6 ml saline [154 mmol/l NaCl]). PG was measured by a Super GL2 Glucose Analyzer (Dr. Müller Gerätebau, Freital, Germany). Insulin infusion was terminated 60 min prior to hypoglycaemia induction at the latest. PG was maintained at 5.5 mmol/l±20% from 60 min to 30 min prior to hypoglycaemia induction and at 5.5 mmol/l±10% during the last 30 min prior to hypoglycaemia induction. Hypoglycaemia induction was initiated by terminating glucose infusion, thereby allowing PG to decline towards the minimum (nadir) PG target level of no less than 2.5 mmol/l. The handling of alternative scenarios, e.g. PGnadir >2.5 mmol/l, slow PG decline towards hypoglycaemia or slow recovery from hypoglycaemia, is described in electronic supplementary material (ESM) Methods. The investigator recorded if the PGnadir was <3.0 mmol/l or ≥3.0 mmol/l with hypoglycaemic symptoms. The PGnadir level was maintained for 15 min by variable i.v. glucose as needed. Subsequently, euglycaemia was restored by constant i.v. glucose (5.5 mg kg^−1 min^−1) until PG was 5.5 mmol/l, which was maintained until the next morning (between 07:00 hours and 09:00 hours) by variable i.v. glucose. During hypoglycaemia induction, participants remained fasted (except for water ad libitum) and stayed in a supine or semi-supine position (except when cognitive tests were performed). Participants stayed at the clinical site for at least 12 h following each hypoglycaemia induction experiment. […]

[3] = tested on: individuals with type 2 diabetes; assay: Cognitive function: digit symbol substitution test (DSST); conditions: for Change in DSST at PG3.0 mmol/l, least-squares mean / Change in DSST at PGnadir, least-squares mean: change from baseline, subgroup
Experimental: Hypoglycaemic response assessments were conducted at predefined PG levels during hypoglycaemia development and recovery (Fig. 1b). Hypoglycaemic symptoms score (HSS), hypoglycaemia awareness, counterregulatory hormones, vital signs and cognitive function tests were assessed at baseline (PG5.5 mmol/l), during hypoglycaemia development (PG3.9 mmol/l and PG3.0 mmol/l) and at PGnadir.
Cognitive function was assessed using the trail making B (TMB) test, the digit symbol substitution test (DSST) and the four-choice reaction time (4CRT) test. In the TMB test from the Halstead Reitan Neuropsychological Battery [16, 17], the participant connects 25 circles distributed on a chart in the correct sequence as quickly as possible. The circles contain a number (1–13) or a letter (A–L), and the correct sequence consists of alternating numbers and letters (i.e. 1–A–2–B–3 etc). The test result is the time needed to complete the task correctly. In the DSST, which is a subtest of the Wechsler Adult Intelligence Scale - Revised [18], nine digits are represented by nine different symbols. During 90 s, the participant is requested to write down the appropriate symbol for as many numbers as possible in a given array. The test result is the number of correct responses. […] In 100 cycles, the participant responds by pressing the corresponding position on a keypad. The test result has two components: percentage of correct answers and the mean response time.
Changes in HSS, vital signs and cognitive function tests from baseline (PG5.5 mmol/l) to PG3.0 mmol/l and to PGnadir were compared between insulin products at each of the two dose levels using the same approach as described for PGnadir, except that no logarithmic transformation was done and that the baseline value was included as a covariate. Least-squares means, treatment difference and 95% CI were derived.

[4] = tested on: individuals with type 2 diabetes; assay: Hypoglycaemia awareness question 'Do you feel hypo?' during hypoglycaemia induction; assay type: in vivo, human; conditions: subgroup
Experimental: Hypoglycaemia awareness was determined by asking the question, ‘Do you feel hypo?’, to the participant.

[5] = tested on: noradrenaline (norepinephrine); assay: Counterregulatory hormone response: plasma noradrenaline (LC-MS); assay type: in vivo, human; conditions: for Noradrenaline at PG3.0 mmol/l, estimated geometric mean / Noradrenaline at PGnadir, estimated geometric mean: plasma, subgroup
Experimental: Plasma concentrations of glucagon were measured by an enzyme-linked immunosorbent assay (Mercodia AB, Uppsala, Sweden). Plasma concentrations of adrenaline (epinephrine) and noradrenaline (norepinephrine) were measured by liquid chromatography-mass spectrometry (Thermo Fisher Scientific, Dreieich, Germany). Serum concentrations of cortisol and growth hormone were measured by electrochemiluminescent immunoassays (Roche Diagnostics, Mannheim, Germany).

[6] = treatment periods, outside hypoglycaemia induction experiments
[7] = double dose, n=15 icodec, 13 glargine U100
[8] = double dose, n=20 icodec, 19 glargine U100
[9] = double dose, n=17 icodec, 15 glargine U100
[10] = triple dose, n=18 icodec, 22 glargine U100
[11] = triple dose, n=20 icodec, 29 glargine U100
[12] = triple dose, n=20 icodec, 28 glargine U100

Substance: insulin icodec
- Binding to albumin (albumin): strong, reversible binding
- Insulin receptor binding affinity (insulin receptor): low
- Number of level 2 hypoglycaemic episodes ([1]; from end of hypoglycaemia induction experiment until 1 week after triple dose): six episodes in five individuals
- Number of level 2 hypoglycaemic episodes ([1]; from end of hypoglycaemia induction experiment until 2 weeks after double dose): four episodes in three individuals
- Duration of level 2 hypoglycaemic episodes, mean±SD ([1]; over both doses, treatment periods, outside induction): 25.3 ± 8.5 min
- AE rate ([1]; treatment periods): 10.9 AEs per participant-year of exposure
- Rate of clinically significant hypoglycaemic episodes (level 2, PG <3.0 mmol/l) [1, 6]: 3.4 episodes per participant-year of exposure
- Severe hypoglycaemic episodes (level 3) [1, 6]: no severe hypoglycaemic episodes
- Number of AEs reported ([1]; treatment periods, exposure 4.8 participant-years icodec, 1.6 glargine U100): 52 AEs
- Time to full recovery from hypoglycaemia ([2]; constant i.v. glucose infusion at 5.5 mg kg^−1 min^−1, double and triple doses): ≤ 30 min
- Glucose needed from PGnadir to PG5.5 mmol/l, treatment ratio (95% CI) icodec vs glargine U100 ([2]; double dose): 1.27 (1.05, 1.53)
- Time to decline from PG5.5 mmol/l to PG3.0 mmol/l, treatment ratio (95% CI) icodec vs glargine U100 ([2]; double dose): 0.64 (0.31, 1.33)
- Time to decline from PG5.5 mmol/l to PG3.9 mmol/l, treatment ratio (95% CI) icodec vs glargine U100 ([2]; double dose): 0.62 (0.48, 0.78)
- Time to recovery from PGnadir to PG5.5 mmol/l, treatment ratio (95% CI) icodec vs glargine U100 ([2]; double dose): 1.34 (1.16, 1.55)
- Mean PGnadir, treatment ratio (95% CI) icodec vs glargine U100 ([2]; double dose): 0.97 (0.94, 1.00)
- Mean PGnadir, estimated geometric mean ([2]; double dose, n=43 icodec, 42 glargine U100): 3.2 mmol/L
- Time to recovery from PGnadir to PG5.5 mmol/l, estimated geometric mean [2, 7]: 28.3 min
- Glucose needed from PGnadir to PG5.5 mmol/l, estimated geometric mean [2, 7]: 141 mg/kg
- Time to decline from PG5.5 mmol/l to PG3.9 mmol/l, estimated geometric mean [2, 8]: 0.7 h
- Time to decline from PG5.5 mmol/l to PG3.0 mmol/l, estimated geometric mean [2, 9]: 2.9 h
- Mean PGnadir in the subgroup analysis, treatment ratio [95% CI] icodec vs glargine U100 ([2]; double dose): 1.01
- Mean PGnadir in the subgroup analysis ([2]; double dose): 2.9 mmol/L
- Glucose needed from PGnadir to PG5.5 mmol/l, treatment ratio (95% CI) icodec vs glargine U100 ([2]; triple dose): 1.02 (0.83, 1.24)
- Time to decline from PG5.5 mmol/l to PG3.0 mmol/l, treatment ratio (95% CI) icodec vs glargine U100 ([2]; triple dose): 1.05 (0.68, 1.64)
- Time to decline from PG5.5 mmol/l to PG3.9 mmol/l, treatment ratio (95% CI) icodec vs glargine U100 ([2]; triple dose): 0.90 (0.78, 1.04)
- Time to recovery from PGnadir to PG5.5 mmol/l, treatment ratio (95% CI) icodec vs glargine U100 ([2]; triple dose): 1.02 (0.82, 1.28)
- Mean PGnadir, treatment ratio (95% CI) icodec vs glargine U100 ([2]; triple dose): 1.07 (1.04, 1.11)
- Mean PGnadir, estimated geometric mean ([2]; triple dose, n=38 icodec, 40 glargine U100): 3.1 mmol/L
- Time to recovery from PGnadir to PG5.5 mmol/l, estimated geometric mean [2, 10]: 23.8 min
- Glucose needed from PGnadir to PG5.5 mmol/l, estimated geometric mean [2, 10]: 116 mg/kg
- Time to decline from PG5.5 mmol/l to PG3.9 mmol/l, estimated geometric mean [2, 11]: 0.7 h
- Time to decline from PG5.5 mmol/l to PG3.0 mmol/l, estimated geometric mean [2, 12]: 2.4 h
- Mean PGnadir in the subgroup analysis, treatment ratio [95% CI] icodec vs glargine U100 ([2]; triple dose): 1.05
- Mean PGnadir in the subgroup analysis ([2]; triple dose): 2.9 mmol/L
- Change in DSST at PG3.0 mmol/l, treatment difference (95% CI) icodec vs glargine U100 ([3]; double dose): 1.2 (-3.1, 5.5)
- Change in DSST at PGnadir, treatment difference (95% CI) icodec vs glargine U100 ([3]; double dose): 0.6 (-3.7, 4.9)
- Change in DSST at PG3.0 mmol/l, least-squares mean ([3]; double dose, n=16 icodec, 15 glargine U100): -5.4 number of correct responses
- Change in DSST at PGnadir, least-squares mean ([3]; double dose, n=18 icodec, 18 glargine U100): -6.7 number of correct responses
- Change in DSST at PG3.0 mmol/l, treatment difference (95% CI) icodec vs glargine U100 ([3]; triple dose): 0.5 (-3.3, 4.3)
- Change in DSST at PGnadir, treatment difference (95% CI) icodec vs glargine U100 ([3]; triple dose): -2.2 (-6.8, 2.5)
- Change in DSST at PGnadir, least-squares mean ([3]; triple dose, n=19 icodec, 29 glargine U100): -9.1 number of correct responses
- Change in DSST at PG3.0 mmol/l, least-squares mean [3, 12]: -5.5 number of correct responses
- Proportion of individuals answering 'Yes' to 'Do you feel hypo?' ([4]; double dose, at PG3.0 mmol/l, n=9/17 icodec, 2/15 glargine U100): 52.9%
- Proportion of individuals answering 'Yes' to 'Do you feel hypo?' ([4]; double dose, at PGnadir, n=14/20 icodec, 10/19 glargine U100): 70.0%
- Proportion of individuals answering 'Yes' to 'Do you feel hypo?' ([4]; triple dose, at PG3.0 mmol/l, n=5/20 icodec, 8/28 glargine U100): 25.0%
- Proportion of individuals answering 'Yes' to 'Do you feel hypo?' ([4]; triple dose, at PGnadir, n=9/20 icodec, 15/29 glargine U100): 45.0%
- Noradrenaline at PG3.0 mmol/l, treatment ratio (95% CI) icodec vs glargine U100 ([5]; double dose): 1.12 (0.83, 1.50)
- Noradrenaline at PGnadir, treatment ratio (95% CI) icodec vs glargine U100 ([5]; double dose): 1.19 (0.91, 1.55)
- Noradrenaline at PG3.0 mmol/l, estimated geometric mean [5, 9]: 952.7 pmol/L
- Noradrenaline at PGnadir, estimated geometric mean [5, 8]: 1078.0 pmol/L
- Noradrenaline at PG3.0 mmol/l, treatment ratio (95% CI) icodec vs glargine U100 ([5]; triple dose): 1.26
- Noradrenaline at PGnadir, treatment ratio (95% CI) icodec vs glargine U100 ([5]; triple dose): 1.05 (0.79, 1.40)
- Noradrenaline at PG3.0 mmol/l, estimated geometric mean [5, 12]: 1058.4 pmol/L
- Noradrenaline at PGnadir, estimated geometric mean [5, 11]: 934.1 pmol/L
